# Experimental data taken from US5466675A, “Immunological activity of rhamnolipids” (priority 1992, dated 1995).
# Tests used:
# P59fyn Tyrosine Kinase = P59fyn Tyrosine Kinase (Homo sapiens, UniProt P06241); assay: enzyme inhibition, p59fyn tyrosine kinase; format: biochemical; conditions: 0.5% DMSO
# Description: (§1) Rhamnolipid (II) was tested in vitro against a wide array of enzymes.
# (§2) All enzyme assays were done spectrophotometrically by computer linked automatic microplate reader (Labsystem Multiskan) and Diode Array spectrophotometer (Perkin Elmer).
# [1] = system: Dopamine D2A (human recombinant); assay: [3H] spiperone dopamine D2A receptor inhibition; format: binding; conditions: 100 uM
# alpha-glucosidase = assay: enzyme inhibition, alpha-glucosidase; format: biochemical
# Description: as §1, §2
# alkalinephosphatase = assay: enzyme inhibition, alkalinephosphatase; format: biochemical
# Description: as §1, §2
# polio I virus = format: cell-based; conditions: concentrations ≤100 ug/ml
# semliki forest virus = assay: effect on viruses, semliki forest; format: cell-based; conditions: concentrations ≤100 ug/ml
# Description: (§3) Tests were performed according to D. A. Vanden Berghe et al., Inst. Pasteur 84,101 (1986). Rhamnolipid (II) was toxic for VERO cells in concentrations ≥200 ug/ml, and cytotoxic on MT4 cells in concentrations >169.40 ug/ml.
# HIV I, strain IIIB = assay: effect on viruses, HIV I strain IIIB; format: cell-based; conditions: Human immunodeficiency virus 1, IIIB; read-out: maximal protection
# Description: as §3
# Staphylococcus aureus = assay: minimum inhibitory concentration, Staphylococcus aureus; format: cell-based; conditions: in tested medium
# Text: (§4) The Minimum inhibitory concentration (MIC) of Rhamnolipid II for Candida albicans, Escherichia coli, Staphylococcus aureus and Pseudomonas aeruginosa was >0.5% in tested medium.
# Pseudomonas aeruginosa = assay: minimum inhibitory concentration, Pseudomonas aeruginosa; format: cell-based; conditions: in tested medium
# Text: as §4
# [2] = system: tissue plasminogen activator (t-PA) released by human umbilical cord venous endothelial cells; assay: tissue plasminogen activator release; format: cell-based
# bacterial revertants = assay: Ames test; format: cell-based; conditions: 10, 100, 200, 500, 1000 ug/plate
# Description: Tests were performed according to the method described by Ames N. Bruce et al. (Mutation Research, 31 (1975), 347- 364). Test concentrations of rhamnolipid (II) were 10, 100, 200, 500, 1000 ug/plate.
# In the range of tested rhamnolipid concentrations, the number of bacterial revertants per Petri dish was in the range of spontaneous revertants which are present without S9 mixture. Therefore, it can be concluded that Rhamnolipid (II) was not mutagenic at the tested concentrations.
# [3] = system: B-cells isolated from mouse spleens; assay: B-lymphocyte proliferation; format: cell-based; conditions: B-cell, 0.5% DMSO, read-out: % Stimulation (+)/Suppression (-)
# Description: Procedure: B-cells were isolated from mouse spleens using conventional procedures, and suspended in DMEM. 10^6 cells/ml were incubated overnight at 37° C. to assess stimulation (positive score, related to 1 ug/ml lipopolysaccharide) or suppression (negative score, related to blank control) of cell proliferation. The test substance was evaluated under these conditions at 10, 1, 0.1, 0.01 and 0.001 uM. After overnight incubation, 2 uCi [^3 H] thymidine incorporation was assessed by liquid scintillation counting.
# [4] = system: sheep red blood cell (SRBC) hemagglutination; assay: immunosuppression (humoral): sheep red blood cell (SRBC) hemagglutination; format: in vivo, mouse (ICR, female)
# Description: Groups of 6 mice were sensitized by the IV injection of 0.2 ml of a 2% SRBC suspension. On the 9th day following sensitization, blood samples were withdrawn from the orbital sinus and equal parts of complement inactivated serum from the group of 6 mice were pooled to yield a single 0.25 ml sample. Serial 2-fold dilutions were then carried out 10 times in the presence of added complement. […] Serum titers of less than 16 or greater than 128 are considered significant and indicate possible immunosuppressant and immunostimulant activity, respectively.
# For immunostimulant activity, test substance or vehicle was administered i.p. to groups of mice for 3 consecutive days, and sensitized to SRBCs 2 hours after the third (last) injection. For immunosuppressant activity, test substance or vehicle was administered i.p. to groups of mice for 3 consecutive days beginning 2 hours after sensitization to SRBCs.
# Neurodermitis = assay: clinical treatment of neurodermitis; format: in vivo, human; conditions: twice a day; occlusions up to 24 hours
# Description: Two patients with Neurodermitis were treated at the beginning of 1992. Rhamnolipid II was applied on affected regions twice a day; occlusions were applied as well (up to 24 hours).
# The treatment and monitoring of patients was, again, a "double blind" experiment. Other affected regions where corticosteroids were applied were used for comparison.
# seborhoic dermatitis = assay: clinical treatment of seborhoic dermatitis; format: in vivo, human; conditions: one patient
# Description: 17 patients, 11 men and 6 women, were treated with rhamnolipid (II). Among these, 12 patients were suffering from Psoriasis, 2 from Neurodermitis, 1 from Lichen ruber planus, 1 from Serborhoic dermatitis and one from Dermatitis circumscripta unilocularis eczematoides.
# patients = conditions: human, in vivo
# Text: Blood samples for lab tests were taken from all twelve patients on the first and last day of treatment.
# [5] = system: A431 human epidermal cells; conditions: in particular in the presence of PMA
# in vitro = conditions: monkey, vero cells
# [6] = range-finding study phase (single intravenous dose); conditions: mouse, in vivo, iv
# mice C57B1/6 = assay: as above
# [7] = fourth day after application, IV
# Sequence of P59fyn Tyrosine Kinase (P06241 whole entry): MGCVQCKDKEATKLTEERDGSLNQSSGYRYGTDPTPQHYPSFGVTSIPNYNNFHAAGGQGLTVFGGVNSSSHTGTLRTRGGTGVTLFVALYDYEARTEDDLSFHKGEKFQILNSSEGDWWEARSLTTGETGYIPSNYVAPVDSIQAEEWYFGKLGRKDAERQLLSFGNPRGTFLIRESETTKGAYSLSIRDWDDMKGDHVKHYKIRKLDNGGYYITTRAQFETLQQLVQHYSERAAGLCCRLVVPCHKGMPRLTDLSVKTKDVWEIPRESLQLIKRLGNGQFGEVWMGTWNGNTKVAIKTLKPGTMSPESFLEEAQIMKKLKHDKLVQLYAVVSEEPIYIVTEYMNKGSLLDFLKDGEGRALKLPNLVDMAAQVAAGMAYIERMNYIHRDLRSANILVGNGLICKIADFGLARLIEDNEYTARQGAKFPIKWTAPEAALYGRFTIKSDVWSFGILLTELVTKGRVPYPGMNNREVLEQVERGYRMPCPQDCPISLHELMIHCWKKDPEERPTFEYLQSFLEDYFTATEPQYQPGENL
structure (smiles),measurement,setting,value
"CCCCCCCC(CC(=O)O)OC(=O)CC(CCCCCCC)O[C@@H]1O[C@@H](C)[C@H](O)[C@@H](O)[C@H]1O[C@@H]1O[C@@H](C)[C@H](O)[C@@H](O)[C@H]1O (stereo partly drawn) [Rhamnolipid (II), (alpha-L-rhamnopyranosyl-(1,2)alpha-L-rhamnopyranosyl)-3-hydroxydecanoyl-3-hydroxydecanoic acid]",inhibition at 0.01 µM,P59fyn Tyrosine Kinase; 0.01 μM,1%
same,inhibition at 1 µM,P59fyn Tyrosine Kinase; 1 μM,0%
same,inhibition at 100 µM,P59fyn Tyrosine Kinase; 100 μM,15%
same,inhibition of the dopamine D2A receptor,[1],53%
same,effect on enzyme,alpha-glucosidase,no effect
same,effect on enzyme,alkalinephosphatase,no effect
same,antiviral activity,polio I virus,no activity
same,antiviral activity,semliki forest virus,no activity
same,Emax,"HIV I, strain IIIB",9%
same,Minimum inhibitory concentration (MIC),Staphylococcus aureus,> 0.5%
same,Minimum inhibitory concentration (MIC),Pseudomonas aeruginosa,> 0.5%
same,t-PA release induced by PMA,"[2]; 0.1 mg/ml, PMA induced",slightly inhibited
same,basal t-PA release,[2]; basal,no effect
same,mutagenicity (Ames test),bacterial revertants,not mutagenic
same,mutagenicity (Ames test),bacterial revertants; listed as rhamnolipid II,negative
same,activation at 0.001 µM,[3]; 0.001 uM,4%
same,activation at 0.01 µM,[3]; 0.01 uM,8%
same,activation at 0.1 µM,[3]; 0.1 uM,10%
same,activation at 1 µM,[3]; 1 uM,9%
same,activation at 10 µM,[3]; 10 uM,2%
same,SERUM TITER (Reciprocal Serum Dilution),[4]; IP 0.1 × 3 mg/kg,32
same,SERUM TITER (Reciprocal Serum Dilution),[4]; IP 1 × 3 mg/kg,32
same,SERUM TITER (Reciprocal Serum Dilution),[4]; IP 10 × 3 mg/kg,128
same,SERUM TITER (Reciprocal Serum Dilution),[4]; IP 100 × 3 mg/kg,16
same,died on Day 3,[4]; IP 100 × 3 mg/kg,2/6
same,improvements versus corticosteroids,Neurodermitis,"observed rapidly, faster than in cases when corticosteroids were applied"
same,occurrence of relapses versus local corticosteroids,Neurodermitis,a bit later
same,cure,seborhoic dermatitis,completely cured
same,lab tests of blood samples,patients,no altered results of the tests were observed
same,A431 cell growth,[5],suppressed A431 cell growth
same,MCC,in vitro,≥ 200 µg/mL
same,LD50,[6],105 mg/kg
same,single dose toxicity,mice C57B1/6; IV application,7.5 mg/kg
same,lymphocytes,mice C57B1/6; [7],significant decrease
same,neutrophils,mice C57B1/6; [7],significant increase
same,behavior and appearance of treated mice,"mice C57B1/6; observation period, IV single dose",no changes
same,lower bracket dose (LBD),mice C57B1/6; single intravenous dose,67.5 mg/kg
same,upper bracket dose (UBD),mice C57B1/6; single intravenous dose,127.5 mg/kg
